Laboratory results: ChEMBL document CHEMBL1155090, “Novel alkoxybenzamide inhibitors of poly(ADP-ribose) polymerase” (Bioorg Med Chem Lett, 2008)

Experiments:
HeLa = assay: Ratio of GI50 for methyl methane sulphonate to drug in human HeLa B cells; type: functional
[1] = molecular target: Poly [ADP-ribose] polymerase 1 (Homo sapiens, UniProt P09874); assay: Inhibition of PARP1
Sequence of Poly [ADP-ribose] polymerase 1 (P09874 whole entry): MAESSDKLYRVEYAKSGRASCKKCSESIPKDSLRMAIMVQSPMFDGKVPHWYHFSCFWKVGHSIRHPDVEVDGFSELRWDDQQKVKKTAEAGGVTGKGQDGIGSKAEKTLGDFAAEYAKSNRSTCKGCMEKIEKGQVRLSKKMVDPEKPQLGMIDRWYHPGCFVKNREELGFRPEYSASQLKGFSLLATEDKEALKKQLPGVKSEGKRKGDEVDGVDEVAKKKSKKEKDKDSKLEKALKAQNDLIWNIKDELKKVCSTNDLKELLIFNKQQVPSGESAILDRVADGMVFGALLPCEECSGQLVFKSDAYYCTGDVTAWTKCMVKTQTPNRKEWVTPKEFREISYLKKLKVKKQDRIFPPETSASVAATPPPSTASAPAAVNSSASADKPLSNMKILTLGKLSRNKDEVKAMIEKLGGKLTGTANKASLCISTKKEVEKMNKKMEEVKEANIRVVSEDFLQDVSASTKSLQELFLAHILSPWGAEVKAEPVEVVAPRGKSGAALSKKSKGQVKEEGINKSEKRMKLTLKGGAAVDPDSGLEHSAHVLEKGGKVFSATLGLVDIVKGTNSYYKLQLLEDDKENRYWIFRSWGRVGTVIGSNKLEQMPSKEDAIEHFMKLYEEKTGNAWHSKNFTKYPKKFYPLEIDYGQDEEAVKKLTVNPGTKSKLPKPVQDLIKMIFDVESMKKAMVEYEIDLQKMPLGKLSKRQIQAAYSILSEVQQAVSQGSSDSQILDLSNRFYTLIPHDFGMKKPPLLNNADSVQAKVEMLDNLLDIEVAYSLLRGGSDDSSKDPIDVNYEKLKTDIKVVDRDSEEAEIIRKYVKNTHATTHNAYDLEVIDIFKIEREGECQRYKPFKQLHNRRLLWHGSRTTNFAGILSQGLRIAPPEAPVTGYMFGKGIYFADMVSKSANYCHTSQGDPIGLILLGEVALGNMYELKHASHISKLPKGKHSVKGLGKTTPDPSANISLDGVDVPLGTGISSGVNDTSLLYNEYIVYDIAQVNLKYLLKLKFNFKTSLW

O=C(c1cccc(Cc2n[nH]c(=O)c3ccccc23)c1)N1CCNCC1
PF50 (HeLa): 2.7 | IC50 [1]: 2 nM

NC(=O)c1ccccc1OCc1ccc(F)c(C(=O)N2CCNCC2)c1
PF50 (HeLa): 1.4 | IC50 [1]: 61 nM

NC(=O)c1cc(F)ccc1OCc1ccc(F)c(C(=O)N2CCNCC2)c1
PF50 (HeLa): 1.6 | IC50 [1]: 29 nM

NC(=O)c1cc(F)c(F)cc1OCc1ccc(F)c(C(=O)N2CCNCC2)c1
PF50 (HeLa): 1.08 | IC50 [1]: 240 nM

CC(Oc1ccccc1)C(=O)N1CCN(C(=O)c2cc(CCOc3ccccc3C(N)=O)ccc2F)CC1 (stereo unspecified)
PF50 (HeLa): 1.5

NC(=O)c1c(F)ccc(F)c1OCc1ccc(F)c(C(=O)N2CCNCC2)c1
IC50 [1]: > 10000 nM

CC(Oc1ccccc1)C(=O)N1CCN(C(=O)c2cc(COc3ccc(F)cc3C(N)=O)ccc2F)CC1 (stereo unspecified)
PF50 (HeLa): 1.12 | IC50 [1]: 14 nM

NC(=O)c1cc(F)cc(F)c1OCc1ccc(F)c(C(=O)N2CCNCC2)c1
PF50 (HeLa): 0.9 | IC50 [1]: 1500 nM

NC(=O)c1ccccc1OCc1ccc(F)c(C(=O)N2CCN(C(=O)C3CCCC3)CC2)c1
PF50 (HeLa): 1.96 | IC50 [1]: 24 nM

CC(Oc1ccccc1)C(=O)N1CCN(C(=O)c2cccc(Cc3n[nH]c(=O)c4ccccc34)c2)CC1 (stereo unspecified)
PF50 (HeLa): 29.7 | IC50 [1]: 5 nM

NC(=O)c1ccccc1OCc1cccc(C(=O)N2CCNCC2)c1
PF50 (HeLa): 1.3 | IC50 [1]: 18 nM

CC(Oc1ccccc1)C(=O)N1CCN(C(=O)c2cc(COc3ccccc3C(N)=O)ccc2F)CC1 (stereo unspecified)
PF50 (HeLa): 3.7 | IC50 [1]: 50 nM

NC(=O)c1ccccc1OCCc1cccc(C(=O)N2CCNCC2)c1
PF50 (HeLa): 1.06 | IC50 [1]: 970 nM

NC(=O)c1ccccc1OCc1cccc(C(=O)N2CCN(C(=O)C3CCCC3)CC2)c1
PF50 (HeLa): 1.1 | IC50 [1]: 188 nM

NC(=O)c1ccccc1OCCc1cccc(C(=O)N2CCN(C(=O)C3CCCC3)CC2)c1
IC50 [1]: 200 nM

O=C(c1cccc(Cc2n[nH]c(=O)c3ccccc23)c1)N1CCN(C(=O)C2CCCC2)CC1
PF50 (HeLa): 4.8 | IC50 [1]: 8 nM

NC(=O)c1ccc(F)cc1OCc1ccc(F)c(C(=O)N2CCNCC2)c1
PF50 (HeLa): 1.2 | IC50 [1]: 250 nM

NC(=O)c1ccccc1OCCc1ccc(F)c(C(=O)N2CCNCC2)c1
IC50 [1]: > 10000 nM

NC(=O)c1cc(F)ccc1OCc1ccc(F)c(C(=O)N2CCN(C(=O)C3CCCC3)CC2)c1
PF50 (HeLa): 1.5

CC(Oc1ccccc1)C(=O)N1CCN(C(=O)c2cccc(COc3ccccc3C(N)=O)c2)CC1 (stereo unspecified)
PF50 (HeLa): 2 | IC50 [1]: 36 nM

CC(Oc1ccccc1)C(=O)N1CCN(C(=O)c2cccc(CCOc3ccccc3C(N)=O)c2)CC1 (stereo unspecified)
IC50 [1]: 200 nM
